Measurements reported in patent publication US11135228B2, “Cysteinyl-proresolving mediators that promote resolution of infection and organ protection” (THE BRIGHAM AND WOMEN'S HOSPITAL, priority 2014, dated 2021).

Columns and labels:
γ-glutamyl transferase [1] = test: SCI and SCII levels in regenerating planaria with γ-glutamyl transferase inhibitor; assay type: in vivo, Dugesia japonica; settings: Acivicin 2.5 mM
γ-glutamyl transferase [2] = test: Sulfido-conjugate levels in activated human macrophages with γ-glutamyl transferase inhibitor; assay type: cell-based; settings: Acivicin 2.5 mM
Experimental: Human macrophages (3×10^7 cells/ml) were incubated with DHA (1 μg, 37° C., PBS, pH 7.45) and E. coli (1.5×10^8 […]). Incubations were stopped with 2 volumes ice-cold methanol, products were extracted and levels assessed by LC-MS-MS. In select experiments, macrophages were incubated with Acivicin (2.5 mM, 37° C. PBS, pH 7.45) prior to addition of DHA (1 μg) and. Acivicin (2.5 mM) and products assessed by LC-MS-MS.
In select experiments, human macrophages (˜4.5×10^7 cells/ml) were incubated with DHA (10.5 μM) or 17-HpD [10 μM at 37° C. (pH 7.45)] and E. coli (1:50) for 30 min at 37° C. Incubations were stopped with 2 volumes of ice-cold methanol, products were extracted, and levels assessed by LC-MS-MS. Macrophages were also incubated with or without Acivicin [2.5 mM at 37° C., PBS (pH 7.45)], a γ-glutamyl transferase (GGT) agent that inhibits LT D4 formation (16), before addition of 17-HpD (10 μM) and E. coli (1:50; 60 min), and products were taken to […].

Human macrophages [3] = test: Human macrophage efferocytosis of apoptotic PMN; assay type: cell-based; settings: 17-series sulfido-conjugates 0.1-10 nM; apoptotic PMNs 40 min
Experimental: (§1) Leukocyte phagocytosis: Macrophages were prepared from peripheral blood mononuclear cells (PBMC) purchased from Children's Hospital Blood Bank, Boston, and phagocytosis was assessed as in (11). Briefly, macrophages (5×10^4 cells,/well) were incubated with SCI (10 pM-100 nM), SCII (10 pM-100 nM), MaR1 (10 pM-100 nM), or vehicle (0.1% EtOH in DPBS) for 15 min at 37° C., then fluorescent labeled apoptotic cells were added and cells incubated 45 min at 37° C. Extracellular fluorescence was quenched using Trypan blue (1:15 dilution) and phagocytosis assessed using an M3 SpectraMax plate reader. In select experiments, macrophages (5×10^4 cells/well) or neutrophils (1×10^5 cells/well) were obtained from human healthy volunteers' peripheral blood as in (11) in accordance with Partners Human Research Committee Protocol (#1999P001297), and incubated with H2DCFDA (5 μM, 30 min, 37° C.), then with SCI (10 pM-100 nM), SCI (10 pM-100 nM) or vehicle (0.1% EtOH in DPBS, 15 min, 37° C.) and E. coli (1:50 leukocytes to E. coli, 45 min, 37° C.) Intracellular reactive oxygen species were determined by measuring fluorescence using an M3 SpectraMax plate reader. To assess bacterial phagocytosis, macrophages (5×10^4 cells/well) or neutrophils (1×10^5 cells/well) were incubated with SCI (10 pM-100 nM), SCII (10 pM-100 nM) or vehicle (0.1% EtOH in DPBS, 15 min, 37° C.), then incubated with BacLight Green (Molecular Probes) labeled E. coli (1:50 leukocytes to E. coli, 45 min, 37° C.), Extracellular fluorescence was quenched using Trypan blue (1:15 dilution), and phagocytosis assessed using an M3 SpectraMax plate reader.
In determined experiments, human macrophages were incubated with SC isolates from regenerating planaria for 15 min at 37° C., then fluorescent labeled apoptotic cells were added and efferocytosis was assessed as detailed above.
Macrophage bacterial phagocytosis, efferocytosis, and phagolysosontal acidification: Human macrophages were plated in 96-well plates (5×10^4 cells per well) for 24 h, and phagocytosis or efferocytosis was assessed as in (14). In brief, apoptotic PMNs were obtained by culturing cells overnight in PBS^−/− (5×10^6 cells/ml). Apoptotic human PMNs were labeled with bisbenzimide H33342 trihydrochloride (Sigma-Aldrich). Human macrophages were incubated with 0.1-10 nM concentration of test products, and then labeled apoptotic PMNs were cocultured with macrophages for 40 min [37° C. […]]. Fluorescence was read on a SpectraMax M3 plate reader (Molecular Devices, Sunnyvale, Calif., USA), and results were analyzed using SoftMax Pro (Molecular Devices).

Human macrophages [4] = test: Human macrophage phagocytosis of fluorescently labeled E. coli; assay type: cell-based; settings: 17-series sulfido-conjugates 0.1-10 nM, 15 min; bacteria 40 min
Experimental: as §1
Macrophage phagocytosis was assessed using fluorescently labeled E. coli (serotype O6:K2;H1) with BacLight Green Bacterial Stain (Life Technologies, Eugene, Oreg., USA). E. coli [2.5×10^6 colony-forming units (CFL)/well] were then added to macrophages previously plated in 96-well plates (40 min at 37° C.) and incubated with 0.1-10 nM concentration of test compounds [15 min at 37° C. (pH 7.45)]. Fluorescence was measured on a SpectraMax M3 plate reader, and results were analyzed using SoftMax Pro.

Human macrophages [5] = test: Macrophage phagolysosomal acidification (pHrodo dye); assay type: cell-based; settings: in the presence of bacteria, 60 min
Experimental: Macrophage phagolysosomal acidification was assessed by incubating macrophages with pHrodo dye (Invitrogen) following the manufacturer's instructions. Subsequently, cells were incubated with 1 nM of test compounds (15 min at 37° C.), E. coli (2.5×10^6 CFU/well) were added, and fluorescence was assessed after 60 min (37° C.) using a BZ9000 microscope equipped with a ×20 objective (Keyence, Itasca, Ill., USA) and a fluorescence plate reader.

[6] = tested on: Mice (hind-limb ischemia/reperfusion); test: Hind-limb ischemia reperfusion, second organ reflow injury; assay type: in vivo, mouse; settings: SCI plus SCII 50 ng each or RvD1 500 ng i.v.
Experimental: Ischemia Reperfusion: Mice were anesthetized by intraperitoneal (i.p.) injection of […]. To initiate hind-limb ischemia, tourniquets consisting of a rubber band were placed on each hind limb. Ten min prior to the initiation of reperfusion, Vehicle (saline containing 0.1% EtOH), SCI (50 ng) plus SCII (50 ng) or Resolvin D1 (500 ng) were administered by intravenous injection. At the end of reperfusion (3 h), mice were euthanized, blood collected via cardiac puncture and plasma isolated for lipid mediator metabololipidomics. Lungs were harvested, left lungs were frozen in liquid nitrogen and stored at −80° C. Right lungs were stored in 10% (v/v) buffered formalin and processed for histology and hematoxylin and eosin (H&E) staining by the Children's Hospital Boston Core Histology Facility, imaged using a Keyence BZ-9000 microscope and BZ II imaging software (Keyence) Expression of Ki67 and Roof plate-specific Spondin-3 (RSPO3) were assessed by immunofluorescence staining. Briefly, sections were deparafinized in xylene and rehydrated, then blocked in 10% horse serum and stained with either rat anti-mouse RSPON3 antibody (R&D Systems) for 1 h at room temperature and then with sheep anti-rat Alexa-594 conjugated antibody (BioLegend), or with rabbit anti-mouse antibody (Abeam) and then with donkey anti-rabbit Alexa-488 antibody (BioLegend). Slides were mounted in Vector Shield mounting solution with DAPI (Vector Labs) and immunofluorescence assessed using a Zeiss LSM 510 Meta confocal microscope. Images were processed using ImageJ software (National Institutes of Health) and Adobe Photoshop CS6 (Adobe Systems incorporated) software. Frozen lungs were gently dispersed, centrifuged, and tissue myeloperoxidase (MPO) levels were determined using mouse MPO ELISA (R&D Systems).

## N[C@H](C(=O)O)[C@@H]1CC(Cl)=NO1 [Acivicin]
γ-glutamyl transferase [1]
  SCI level in regenerating planaria: increased
  SCII levels in regenerating planaria: decreased
γ-glutamyl transferase [2]; E. coli
  8-cysteinyl, 7,17-dihydroxy-docosahexaenoic acid (RCTR3) levels: decrease
  8-glutathionyl, 7,17-dihydroxy-docosahexaenoic acid (RCTR1) levels: statistically significant increase
  16-cysteinyl, 17-hydroxy-docosahexaenoic acid (PCTR3) levels: decrease
  16-glutathionyl, 17-hydroxy-docosahexaenoic acid (PCTR1) levels: increase
γ-glutamyl transferase [2]; then DHA and E. coli
  SCI levels: significant increase
  SCII levels: reduction

## CC/C=C\CC(O)C(/C=C/C=C/C=C\C/C=C\C/C=C\CCC(=O)O)SCC(NC(=O)CCC(N)C(=O)O)C(=O)NCC(=O)O (stereo not shown) [PCTR1, 16-glutathionyl, 17-hydroxy-4Z,7Z,10,12,14,19Z-docosahexaenoic acid]
Human macrophages [3]
  human macrophage efferocytosis (uptake of apoptotic human PMNs): dose-dependent increase
Human macrophages [4]
  human macrophage phagocytosis of E. coli: dose-dependent increase
Human macrophages [5]
  macrophage phagolysosomal acidification: dose-dependent increase

## CC/C=C\C[C@H](O)[C@@H](/C=C/C=C/C=C\C/C=C\C/C=C\CCC(=O)O)SC[C@H](N)C(=O)NCC(=O)O [PCTR2, 16-cysteinylglycinyl, 17-hydroxy-4Z,7Z,10,12,14,19Z-docosahexaenoic acid]
Human macrophages [3]
  human macrophage efferocytosis (uptake of apoptotic human PMNs): dose-dependent increase
Human macrophages [4]
  human macrophage phagocytosis of E. coli: dose-dependent increase
Human macrophages [5]
  macrophage phagolysosomal acidification: dose-dependent increase

## CC/C=C\C[C@H](O)[C@@H](/C=C/C=C/C=C\C/C=C\C/C=C\CCC(=O)O)SC[C@H](N)C(=O)O [PCTR3, 16-cysteinyl, 17-hydroxy-4Z,7Z,10,12,14,19Z-docosahexaenoic acid]
Human macrophages [3]
  human macrophage efferocytosis (uptake of apoptotic human PMNs): dose-dependent increase
Human macrophages [4]
  human macrophage phagocytosis of E. coli: dose-dependent increase
Human macrophages [5]
  macrophage phagolysosomal acidification: dose-dependent increase

## CC/C=C\C[C@H](O)\C=C/C=C/C=C/[C@H](O)C/C=C\C/C=C\CCC(=O)O [PD1, 10R,17S-dihydroxy-docosa-4Z,7Z,11E,13E,15Z,19Z-hexaenoic acid, reference compound]
Human macrophages [4]
  human macrophage phagocytosis of E. coli: comparable

## CC/C=C\C[C@H](O)/C=C/C=C\C=C\C=C\[C@@H](SC[C@H](NC(=O)CC[C@H](N)C(=O)O)C(=O)NCC(=O)O)[C@@H](O)C/C=C\CCC(=O)O [RCTR1, 8-glutathionyl, 7,17-hydroxy-4Z,9,11,13Z,15E,19Z-docosahexaenoic acid]
Human macrophages [3]
  human macrophage efferocytosis (uptake of apoptotic human PMNs): dose-dependent increase
Human macrophages [4]
  human macrophage phagocytosis of E. coli: dose-dependent increase
Human macrophages [5]
  macrophage phagolysosomal acidification: dose-dependent increase

## CC/C=C\C[C@H](O)/C=C/C=C\C=C\C=C\[C@@H](SC[C@H](N)C(=O)NCC(=O)O)[C@@H](O)C/C=C\CCC(=O)O [RCTR2, 8-cysteinylglycinyl, 7,17-hydroxy-4Z,9,11,13Z,15E,19Z-docosahexaenoic acid]
Human macrophages [3]
  human macrophage efferocytosis (uptake of apoptotic human PMNs): dose-dependent increase
Human macrophages [4]
  human macrophage phagocytosis of E. coli: dose-dependent increase
Human macrophages [5]
  macrophage phagolysosomal acidification: dose-dependent increase

## CC/C=C\C[C@H](O)/C=C/C=C\C=C\C=C\[C@@H](O)[C@@H](O)C/C=C\CCC(=O)O [RvD1, 7S,8R,17S-trihydroxy-docosa-4Z,9E,11E,13Z,15E,19Z-hexaenoic acid, reference compound]
[6]
  leukocyte infiltration/migration into lungs and spleens (MPO): comparable
